These results are taken from US11198710B2, “Transgenic plant having herbicide resistance” (priority 2016, dated 2021).

The test system of assay [1] is wild-type rice. Briefly: Pyroxasulfone resistance test, wild-type rice, gellan gum medium, plant height. The conditions noted are these: Oryza sativa, shoot growth, 4 to 5 days, Probit method, read-out: I50. Type of assay: in vivo. How it is done:
Hoagland's mix and 3 g of gellan gum were suspended in 1 liter of distilled water and thoroughly dissolved therein by heating in a microwave. A fraction of the resultant (15 ml) was injected into a tubular bottle before it was cooled (30 ml was injected into the plate). The herbicide was simultaneously added at the time of injection of the gellan gum medium into the tubular bottle or plate, followed by thorough mixing. Rice hulls were soaked in a 50-fold diluted sodium hypochlorite solution (antiformin) (Wako) for approximately 20 minutes and then thoroughly washed with water. Sterilized seeds were soaked in distilled water and allowed to stand at 27° C. for germination (for approximately 2 days). Germinating seeds were softly planted in the gellan gum medium (plate) containing 0.25 μM BS. […] Thereafter, rice seeds that were determined to have BS resistance with the use of root elongation as the indicator were transferred to gellan gum media containing pyroxasulfone (tubal bottles) at the final concentrations of 10^−8, 10^−7, 10^−6, and 10^−5M, respectively. […] These samples were grown at 27° C. under fluorescent light illumination (14 hours of a light period and 10 hours of a dark period) for 4 to 5 days, and the plant heights were then measured. […]

For assay [2], the system named is rice plants comprising the TaQ8GTC1-R gene introduced therein. The assay can be described thus: Sensitivity of rice plants comprising the TaQ8GTC1-R gene to pyroxasulfone, gellan gum medium. Type of assay: in vivo. To be noted: strains KLB-872#3-11 and KLB-872#2-4; 10^−8 to 10^−5M. How it is done:
Pyroxasulfone resistance of 2 rice plants strains (KLB-872#3-11 and KLB-872#2-4) was examined via the germination growth inhibitory test using a gellan gum medium. At the outset, Hoagland's mix and 3 g of gellan gum were suspended in 1 liter of distilled water and thoroughly dissolved therein by heating in a microwave. A fraction of the resultant (15 ml) was poured into a tubular bottle before it was cooled (30 ml was injected into the plate). Pyroxasulfone (acetone solution) was simultaneously added at the time of filling of gellan gum medium into the tubular bottle or plate, followed by thorough mixing. Rice hulls were soaked in a 50-fold diluted sodium hypochlorite solution (antiformin) (Wako) for approximately 20 minutes and then thoroughly washed with water. Sterilized seeds were soaked in distilled water and allowed to stand at 27° C. for germination (for approximately 2 days). […] Thereafter, rice seeds that were determined to have BS resistance with the use of root elongation as the indicator were transferred to gellan gum media containing pyroxasulfone (tubal bottles) at the final concentrations of 10^−8, 10^−7, 10^−6, and 10^−5M, respectively. […] These samples were grown at 27° C. under fluorescent light illumination (14 hours of a light period and 10 hours of a dark period) for 4 to 5 days, and the plant heights were then measured. […]

Assay [3] relates to transgenic rapeseed plants comprising the TaQ8GTC0 gene. Briefly: Rapeseed sensitivity test 2 (agar medium), transgenic. The format is in vivo, Brassica napus. To be noted: 10 μM pyroxasulfone, 22° C., 2 weeks. The text has this:
In order to investigate the extent of pyroxasulfone resistance of the transgenic rapeseed plants comprising the […] gene introduced therein compared to wild-type plants, the growth of rapeseed was examined in an agar medium containing pyroxasulfone. Wild-type rapeseed plants (variety: Westar) and transgenic rapeseed plants comprising the TaQ8GTC0 gene introduced therein were subjected to the growth inhibitory test in an agar medium, so as to examine the resistance thereof to pyroxasulfone.
The medium (1 liter) used in the test was composed of 1× Murashige-Skoog (MS) media (a bag), thiamin hydrochloride (3 μg/ml), nicotinic acid (5 μg/ml), pyridoxin hydrochloride (0.5 μg/ml), and 1% (w/v) sucrose. The composition was added to a 1-liter beaker, a pH was adjusted to 5.7, and the volume of the composition was adjusted to 1 liter, followed by the addition of 8 g (0.8%) of agar. Thereafter, the composition was autoclaved, the temperature was cooled to room temperature, and pyroxasulfone (acetone solution) at a given concentration was added. […]
The sensitivity of rapeseed was examined in agar media comprising pyroxasulfone (0.1 μM, 1 μM, 10 μM, and 100 μM). […] Values in the table in FIGS. 41 and 42 are expressed as the mean±standard deviation (n=4 to 5). Values in FIG. 43 are expressed as the means (n=4 to 5).

Assay [4] deals with ZmQ9FQD1. The assay can be described thus: Pyroxasulfone metabolizing activity based on the growth of cultured rice cells in medium. Type of assay: cell-based, maize. The conditions noted are these: cultured rice cells with ZmQ9FQD1 gene; N6D medium, 100 μM (10^−4M) pyroxasulfone, 2 weeks. How it is done: (§1) The 2 lineages of cultured rice cells comprising the maize GST genes introduced thus prepared and the KLB-279 cultured transgenic rice cells (the control cells) were seeded on N6D medium, and pyroxasulfone resistance was inspected based on the growth of cultured rice cells 2 weeks later. Pyroxasulfone was subjected to the test as an acetone solution, the final acetone concentration to be added to the medium was 1%, and the final drug concentration was 10^−4 M.

Assay [5] relates to ZmB8A3K0. The assay is described as above. The conditions noted are these: cultured rice cells with ZmB8A3K0 gene; N6D medium, 100 μM (10^−4M) pyroxasulfone, 2 weeks. Type of assay: cell-based, maize. How it is done:
as §1

`Cn1nc(C(F)(F)F)c(CS(=O)(=O)C2=NOC(C)(C)C2)c1OC(F)F` [Pyroxasulfone, 3-[5-(difluoromethoxy)-1-methyl-3-(trifluoromethyl)pyrazol-4-ylmethylsulfonyl]-4,5-dihydro-5,5-dimethyl-1,2-oxazole]: the IC50 in assay [1] amounted to 39 nM. The sensitivity to pyroxasulfone entry in assay [2] is recorded as “sensitivity equivalent to that of wild-type plants”. Also, the “inhibition ratio on foliage leaf development” value in assay [3] turned out to be 1.2±2.7%. In addition, the “inhibition ratio on plant height” value in assay [3] was determined as 7.8±5.9%. Besides, the “pyroxasulfone metabolizing activity (growth of cultured rice cells)” value in assay [4] and in assay [5] was “no pyroxasulfone metabolizing activity” throughout.
